Laboratory results from US10189809B2, “SGC stimulators” (Ironwood Pharmaceuticals, Inc., priority 2010, dated 2019).

Tests used:
[1] = target: soluble guanylate cyclase (sGC) (Homo sapiens (Human), UniProt Q02108+Q02153); experiment: sGC-HEK-cGMP assay run with SNP incubation (HEK WC assay); format: cell-based; settings: for Emax at 10 µM: read-out: HEK WC Assay (% Emax at 10 μM/with 10 uM SNP); for Emax at 30 µM: read-out: HEK WC Assay (% Emax at 30 μM/with 10 uM SNP)
Outline: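 EC50 values derive from concentration-response curves of intracellular cGMP in HEK293 cells, which express sGC endogenously. Compound and sodium nitroprusside were co-incubated 10 min at 37 °C after a 15-min 0.5 mM IBMX step, with 0.1 M HCl lysis and 1% DMSO vehicle.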

[2] = target: T1, Human soluble guanylate cyclase enzyme (hsGC) (Homo sapiens (Human), UniProt Q02108+Q02153); experiment: Purified human sGC enzyme activity assay; format: biochemical; settings: without the addition of SNP; for sGC Enzyme (fold increase at 30 μM): 30 μM compound
Outline: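 Values are fold-change of sGC specific activity, nmoles cGMP per mg enzyme per min, relative to DMSO controls. Reactions: 5 ng human enzyme, 300 μM GTP, 1 mM IBMX, 2 mM MgCl2/DTT, 0.1 M Tris pH 8.0, compound 10 or 30 μM final, 37° C for 30 minutes, methanol quench. cGMP read against a 0.078-10 μM final standard curve.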

[3] = target: T1, Human soluble guanylate cyclase enzyme (hsGC); experiment: Purified human sGC enzyme synergy assay in the presence of 1 μM sodium nitroprusside (SNP); format: biochemical; settings: 30 μM compound, with the addition of SNP
Outline: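 Fold-change in cGMP-forming specific activity (nmol/mg/min) versus DMSO, with 1 μM SNP present throughout. Reactions held 30 min at 37 °C with 10 or 30 μM compound, 5 ng human sGC, 300 μM GTP, 1 mM IBMX and 2 mM MgCl2 at pH 8.0, then stopped with cold methanol.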

Thoracic aortic rings = experiment: Alternative thoracic aortic rings assay (Example 19b; resting tension as 100% inhibition); set-up: species or system rat; settings: Table 10A; for inhibition at 1 µM / inhibition at 3 µM / EC50 / inhibition at 10 µM: Rattus norvegicus; for inhibition at 1 µM: read-out: Percent Relaxation at 1 μM; for inhibition at 3 µM: read-out: Percent Relaxation at 3 μM; for EC50: read-out: Aortic Ring EC50; for inhibition at 10 µM: read-out: Percent Relaxation at 10 μM; for Percent Relaxation at 1 μM: printed as number or words instead of code
Outline: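 EC50 values come from cumulative concentration-response relaxation of phenylephrine (100 ng/mL)-contracted thoracic aortic rings from 275-299 g male Sprague-Dawley rats. Rings were equilibrated at 1.0 g tension in oxygenated Krebs-Henseleit at 37 °C, with compounds given in DMSO and tension measured isometrically.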

T1 sequence (Q02153 whole entry): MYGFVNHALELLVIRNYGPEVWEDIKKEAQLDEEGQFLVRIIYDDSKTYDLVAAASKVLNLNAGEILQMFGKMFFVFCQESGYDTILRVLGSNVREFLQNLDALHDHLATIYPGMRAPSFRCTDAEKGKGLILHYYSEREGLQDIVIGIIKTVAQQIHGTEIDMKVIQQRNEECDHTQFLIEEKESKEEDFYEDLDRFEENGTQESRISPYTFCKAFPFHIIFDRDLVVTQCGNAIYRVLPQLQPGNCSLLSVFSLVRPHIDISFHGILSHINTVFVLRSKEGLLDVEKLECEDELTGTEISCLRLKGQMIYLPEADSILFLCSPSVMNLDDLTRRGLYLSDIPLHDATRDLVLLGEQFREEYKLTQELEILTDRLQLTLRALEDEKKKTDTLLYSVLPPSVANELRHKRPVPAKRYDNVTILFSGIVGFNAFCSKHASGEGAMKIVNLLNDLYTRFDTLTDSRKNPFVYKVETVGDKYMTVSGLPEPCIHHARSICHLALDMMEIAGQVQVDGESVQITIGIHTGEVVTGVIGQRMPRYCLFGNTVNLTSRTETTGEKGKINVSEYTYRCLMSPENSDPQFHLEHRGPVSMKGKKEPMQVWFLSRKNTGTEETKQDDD
T1 sequence (Q02108 whole entry): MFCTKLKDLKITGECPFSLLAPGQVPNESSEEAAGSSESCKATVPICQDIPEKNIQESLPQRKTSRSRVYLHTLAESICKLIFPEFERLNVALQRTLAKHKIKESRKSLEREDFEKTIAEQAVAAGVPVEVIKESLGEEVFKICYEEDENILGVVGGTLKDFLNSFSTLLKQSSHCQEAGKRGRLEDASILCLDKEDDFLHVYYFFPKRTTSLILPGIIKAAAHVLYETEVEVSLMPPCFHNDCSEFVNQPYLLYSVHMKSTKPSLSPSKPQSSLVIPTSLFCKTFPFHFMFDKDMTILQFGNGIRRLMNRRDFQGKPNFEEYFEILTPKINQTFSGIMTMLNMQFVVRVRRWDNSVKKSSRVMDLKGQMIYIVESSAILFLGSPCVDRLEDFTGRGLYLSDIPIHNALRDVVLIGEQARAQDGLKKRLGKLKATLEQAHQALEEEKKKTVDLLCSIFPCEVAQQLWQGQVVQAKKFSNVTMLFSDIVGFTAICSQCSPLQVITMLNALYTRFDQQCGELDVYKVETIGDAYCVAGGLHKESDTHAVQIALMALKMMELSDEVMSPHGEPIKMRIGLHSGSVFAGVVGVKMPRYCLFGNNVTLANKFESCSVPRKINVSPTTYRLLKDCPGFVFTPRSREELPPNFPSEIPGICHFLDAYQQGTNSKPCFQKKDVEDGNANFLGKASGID
soluble guanylate cyclase (sGC), sequence (Q02153 whole entry): as the sequence (Q02153 whole entry) above
soluble guanylate cyclase (sGC), sequence (Q02108 whole entry): as the sequence (Q02108 whole entry) above

| SMILES | Emax at 10 µM [1] [%] | Emax at 30 µM [1] [%] | sGC Enzyme (fold increase at 30 μM) [2] | sGC Enzyme (fold increase at 30 μM with SNP) [3] | inhibition at 1 µM (Thoracic aortic rings) [%] | inhibition at 3 µM (Thoracic aortic rings; 3 μM) [%] | EC50 (Thoracic aortic rings) [nM] | inhibition at 10 µM (Thoracic aortic rings) [%] | Percent Relaxation at 1 μM (Thoracic aortic rings) | sGC Enzyme (fold increase at 10 μM) ([2]; 10 μM compound) | Percent Relaxation at 3 μM (Thoracic aortic rings; 3 μM, printed as words instead of code) |
| --- | --- | --- | --- | --- | --- | --- | --- | --- | --- | --- | --- |
| Nc1ccnc(-c2cc(-c3cscn3)n(Cc3ccccc3F)n2)n1 [Compound I-92] | 20 to 40 | 20 to 40 | B (B = 2 to <5 fold increase) | D (D = 10 to <30 fold increase) | 60 to 80 | 80 to 100 | < 2000 | – | – | – | – |
| Nc1ccnc(-c2cc(-c3cocn3)n(Cc3ccccc3F)n2)n1 [Compound I-98] | 20 to 40 | 20 to 40 | B (B = 2 to <5 fold increase) | D (D = 10 to <30 fold increase) | 60 to 80 | 100 to 120 | < 2000 | 100 to 120 | – | – | – |
| COC(=O)Nc1c(N)nc(-c2cc(-c3ccsc3)n(Cc3ccccc3F)n2)nc1N [Compound I-71] | 10 to 20 | 10 to 20 | C (C = 5 to <10 fold increase) | D (D = 10 to <30 fold increase) | – | 10 to 20 | – | 60 to 80 | No relaxation | – | – |
| Nc1ccnc(-c2cc(-c3nccs3)n(Cc3ccccc3F)n2)n1 [Compound I-86] | 40 to 60 | 60 to 80 | C (C = 5 to <10 fold increase) | D (D = 10 to <30 fold increase) | 40 to 60 | 80 to 100 | < 2000 | 100 to 120 | – | – | – |
| Fc1ccccc1Cn1nc(-c2ncccn2)cc1-c1ccccn1 [Compound I-75] | 10 to 20 | 20 to 40 | B (B = 2 to <5 fold increase) | D (D = 10 to <30 fold increase) | 10 to 20 | 20 to 40 | 2000 to 4000 | 60 to 80 | – | A (A = no increase to <2 fold increase) | – |
| Nc1ccnc(-c2cc(-c3ccon3)n(Cc3ccccc3F)n2)n1 [Compound I-97] | 40 to 60 | 40 to 60 | D (D = 10 to <30 fold increase) | D (D = 10 to <30 fold increase) | 80 to 100 | 100 to 120 | < 2000 | 100 to 120 | – | – | – |
| COC(=O)Nc1c(N)nc(-c2cc(-c3ncco3)n(Cc3ccccc3F)n2)nc1N [Compound I-99] | 20 to 40 | 40 to 60 | B (B = 2 to <5 fold increase) | C (C = 5 to <10 fold increase) | 0 to 10 | 20 to 40 | < 2000 | 80 to 100 | – | – | – |
| COC(=O)N(C)c1c(N)nc(-c2cc(-c3ccsc3)n(Cc3ccccc3F)n2)nc1N [Compound I-72] | 20 to 40 | 20 to 40 | D (D = 10 to <30 fold increase) | D (D = 10 to <30 fold increase) | – | 20 to 40 | – | 60 to 80 | 3.1 | – | – |
| COC(=O)N(C)c1c(N)nc(-c2cc(-c3ncco3)n(Cc3ccccc3F)n2)nc1N [Compound I-100] | 20 to 40 | 40 to 60 | B (B = 2 to <5 fold increase) | C (C = 5 to <10 fold increase) | 20 to 40 | 60 to 80 | < 2000 | 100 to 120 | – | – | – |
| Nc1nc(-c2cc(-c3ccon3)n(Cc3ccccc3F)n2)ncc1-c1ccncc1 [Compound I-102] | 40 to 60 | 20 to 40 | B (B = 2 to <5 fold increase) | C (C = 5 to <10 fold increase) | 20 to 40 | 60 to 80 | < 2000 | 80 to 100 | – | – | – |
| Nc1ccnc(-c2cc(-c3ncco3)n(Cc3ccccc3F)n2)n1 [Compound I-87] | 60 to 80 | 100 to 120 | D (D = 10 to <30 fold increase) | D (D = 10 to <30 fold increase) | 60 to 80 | 80 to 100 | < 2000 | 100 to 120 | – | – | – |
| COC(=O)N(C)c1cnc(-c2cc(-c3ccon3)n(Cc3ccccc3F)n2)nc1N [Compound I-105] | 80 to 100 | 100 to 120 | C (C = 5 to <10 fold increase) | C (C = 5 to <10 fold increase) | 60 to 80 | 80 to 100 | < 2000 | 100 to 120 | – | – | – |
| N#Cc1cnc(-c2cc(-c3ccon3)n(Cc3ccccc3F)n2)nc1O [Compound I-110] | 60 to 80 | 60 to 80 | B (B = 2 to <5 fold increase) | C (C = 5 to <10 fold increase) | 40 to 60 | 60 to 80 | < 2000 | 80 to 100 | – | – | – |
| CC(=O)Nc1cnc(-c2cc(-c3ccon3)n(Cc3ccccc3F)n2)nc1N [Compound I-112, N-(4-amino-2-(1-(2-fluorobenzyl)-5-(isoxazol-3-yl)-1H-pyrazol-3-yl)pyrimidin-5-yl)acetamide] | 100 to 120 | 80 to 100 | C (C = 5 to <10 fold increase) | D (D = 10 to <30 fold increase) | 80 to 100 | > 120 | < 2000 | 100 to 120 | – | – | – |
| CN(C(=O)OC(C)(C)C)c1cnc(-c2cc(-c3ccon3)n(Cc3ccccc3F)n2)nc1N [Compound I-115] | 80 to 100 | 60 to 80 | C (C = 5 to <10 fold increase) | D (D = 10 to <30 fold increase) | 20 to 40 | 40 to 60 | 2000 to 4000 | 80 to 100 | – | – | – |
| Fc1ccccc1Cn1nc(-c2ncccn2)cc1-c1cscn1 [Compound I-85] | – | 100 to 120 | C (C = 5 to <10 fold increase) | D (D = 10 to <30 fold increase) | 60 to 80 | 80 to 100 | < 2000 | 100 to 120 | – | – | – |
| COC(=O)N(C)c1c(N)nc(-c2cc(-c3ccccc3)n(Cc3ccccc3F)n2)nc1N [Compound I-84] | – | – | C (C = 5 to <10 fold increase) | B (B = 2 to <5 fold increase) | – | – | 8000 to 12000 | 20 to 40 | no relaxation | – | no relaxation |
